# Data from ChEMBL document CHEMBL2074264, “Expression cloning and characterization of ROAT1. The basolateral organic anion transporter in rat kidney” (J Biol Chem, 1997).
# T1: Solute carrier family 22 member 6 (Rattus norvegicus, UniProt O35956)
# T1 sequence (O35956 whole entry): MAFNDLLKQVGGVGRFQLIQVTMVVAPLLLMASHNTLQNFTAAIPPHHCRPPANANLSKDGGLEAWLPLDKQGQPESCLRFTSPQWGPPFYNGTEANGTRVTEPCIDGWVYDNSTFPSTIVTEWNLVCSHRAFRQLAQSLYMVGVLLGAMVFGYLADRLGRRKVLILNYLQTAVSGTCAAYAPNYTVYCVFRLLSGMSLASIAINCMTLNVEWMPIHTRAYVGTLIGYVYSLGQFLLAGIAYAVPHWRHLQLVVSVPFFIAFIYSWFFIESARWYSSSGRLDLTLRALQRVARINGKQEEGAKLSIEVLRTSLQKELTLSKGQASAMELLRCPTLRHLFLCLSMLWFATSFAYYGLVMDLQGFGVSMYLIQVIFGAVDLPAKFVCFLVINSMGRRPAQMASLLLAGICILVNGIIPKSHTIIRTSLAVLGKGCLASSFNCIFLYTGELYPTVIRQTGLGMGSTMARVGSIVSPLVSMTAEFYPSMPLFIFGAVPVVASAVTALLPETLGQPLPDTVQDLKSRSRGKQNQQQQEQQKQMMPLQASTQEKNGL
# B1: Solute carrier family 22 member 6 (Rattus norvegicus) (protein)
# chain: T1 sequence (O35956 whole entry)
# Columns and labels:
# [1] = target: T1, Solute carrier family 22 member 6; assay: TP_TRANSPORTER: inhibition of PAH uptake (PAH: 50 uM, Urate; 1000 uM) in Xenopus laevis oocytes; format: functional, cell-based; settings: oocyte
# [2] = substrate: Nc1ccc(C(=O)NCC(=O)O)cc1; assay: cells, lysate or membranes named
Molecule,Activity [1],Km [2] [µM]
O=c1[nH]c(=O)c2[nH]c(=O)[nH]c2[nH]1 [URIC ACID],is not an inhibitor [-],
B1,,70
